US8410075B2, “Mannich base N-oxide drugs” (Cascade Prodrug Inc., priority 2007, dated 2013)

How the values were obtained:
[1] = Stability of Mannich base N-oxides in D2O monitored by 1H NMR; assay type: physicochemical; settings: for at least several days
Method: The mixture of 3 and 4 was rechromatographed on a Chromatotron with 5:3:0.3 dichloromethane/methanol/ammonia as eluent to give 200 mg (22%) of the N^3 isomer 3 (faster moving isomer on TLC) which was pure by TLC, ^1H and ^19F NMR spectroscopy. The ^1H and ^19F NMR spectra of 3 (D2O) were consistent with the assigned structure. APCI MS (m/e): Calcd. for C9H12FN3O4 (M+H), 246.0; found (M+H) 246.0. Continued elution gave 140 mg (15% yield) of the N^1 isomer 4 (slower moving spot on TLC), which was pure by TLC, ^1H and ^19F NMR spectroscopy. APCI MS (m/e): Calcd. for C9H12FN3O4 (M+H), 246.0; found (M+H) 246.0. N-oxides 3, 4, and 5 were stable in D2O for at least several days as monitored by ^1H NMR spectroscopy. The structures of Mannich base N-oxides 3 and 4 were confirmed by single crystal x-ray analysis. Example 6

[2] = Reduction of 5-FU-derived Mannich base N-oxides with triphenylphosphine in CDCl3 and hydrolysis to 5-fluorouracil (1H and 19F NMR); assay type: physicochemical; settings: mixture of N-oxides 3 and 4, 2 equiv triphenylphosphine in CDCl3 at RT, 70-h time period
Method: Triphenylphosphine is known to reduce N-oxides to the corresponding amines See Gallos, J. K. and Argyropoulos, N. G. Synthesis 1:83-86 (1991). A mixture of N-oxides 3 and 4 was dissolved in CDCl3 and then treated with 2 equiv of triphenylphosphine in CDCl3 at RT and monitored by ^1H and ^19F NMR spectroscopy. According to the ^1H and ^19F NMR spectra, the N-oxides underwent reduction and spontaneous hydrolysis to 5-fluorouracil to the extent of about 90% over a 70-h time period. Thus, not only are the N-oxide groups reduced back to the corresponding Mannich bases, but also the Mannich bases undergo hydrolysis back to 5-FU in the presence of adventitious water.

[3] = Rearrangement of Mannich base N-oxides to O-substituted hydroxylamine isomers in solution (NMR); assay type: physicochemical; settings: for conversion to rearranged product 20: chloroform solution at RT for 72 h
From the text: Examples 5-14 describe the synthesis of several Mannich bases (structures B and structures G in Chart 1) and the corresponding Mannich base N-oxides (structures C and H). In cases where R═H in structure A, the synthesis of the rearranged N-oxide isomer D is also described. […] However, when R═H in A, the Mannich base N-oxide C (R═H) undergoes rearrangement over time to the corresponding isomer D. Rearrangement tends to be very slow (several days) in aqueous solution but more rapid (a few hours) in CDCl3 and depends to some extent on which secondary amine was used to prepare the Mannich base. In one case, the hydrochloride salt (structure E) of a Mannich base N-oxide C where R═H was prepared. Mannich base N-oxide salt E was stable toward rearrangement.
N-(Dimethyl-N′-oxido-aminomethyl)-benzamide (13) and N-(Dimethyl-aminooxymethyl)-benzamide (14). Mannich base 12 (0.18 g, 0.001 mol) was dissolved in dichloromethane (5 mL) and then solid MCPBA (0.26 g, 0.0015 mol) was added to the stirred solution in an ice/water bath. After stirring for 20 min as the solution warmed to RT, the solvent was evaporated. The residue was chromatographed on a Chromatotron with dichloromethane/methanol as eluent. Evaporation of the eluent in the cold is accompanied by rearrangement, giving 150 mg (66%) of the mixture Mannich base N-oxide 13 (Rf˜0.2 in dichloromethane/methanol, 5:1) and the rearranged benzamide derivative 14 (Rf˜0.8 in dichloromethane/methanol, 5:1). A sample of the mixture was allowed to stand in CDCl3 at RT while it was monitored by ^1H NMR.
N-(Piperidin-1-oxido-1-yl-methyl)-benzamide (16) and N-(Piperidin-1-yloxymethyl)-benzamide (17). Mannich base 15 (0.2 g, 0.92 mmol) was dissolved in 2 mL of dichloromethane and then the solution was added to a stirred solution of MCPBA (0.24 g, 1. 14 mmol) in 2 mL of dichloromethane in an ice/water bath. After 5 min of stirring at RT, the solvent was evaporated and the residue was chromatographed on a Chromatotron with dichloromethane/methanol mixture, 5:1 to 5:3 as eluent. The desired fractions were combined and the solvents were evaporated to give Mannich base N-oxide 16 (0.15 g, 72% yield). […] The ^1H and ^13C NMR spectra of 17 are consistent with the assigned structure. […] It was difficult to get clean NMR spectra of 16 in any solvent.
N-(Morpholin-4-oxido-4-ylmethyl)-benzamide (19) and N-(Morpholin-4-oxido-4-ylmethyl)-benzamide Hydrochloride (21) and N-(Morpholin-4-yloxymethyl)-benzamide (20). Mannich base 18 (0.283 g, 1.3 mmol) was dissolved in dichloromethane (6 mL) and the solution was cooled in an ice/water bath. To this stirred solution MCPBA (0.3 g, 1.7 mmol) was added as a solid. After 10 min the reaction mixture was divided in half. The first half was evaporated and chromatographed on a Chromatotron with dichloromethane/methanol 5:0.5 to 5:2 as eluent giving mostly rearranged product 20 (0.1 g, 67%). […] The ^1H and ^13C NMR spectra of 20 were consistent with the assigned structure. APCI MS (m/z): Calcd. for 20, C12H17N2O3 (M+1) 236.1; Found 236.1 A sample of 20 was recrystallized from EtOAc/hexanes giving crystals that were subject to x-ray analysis.
The second half of the MCPBA oxidation solution was extracted with 1N HCl. The water layer was evaporated to dryness and then the residue was treated with dichloromethane and re-evaporated to give the N-oxide HCl salt 21 (0.11 g, 73%) as a waxy solid which was stable in CDCl3 solution for several days. The ^1H NMR spectra were consistent with the assigned structure. […] A sample of 21 was recrystallized from MeOH/Et2O giving crystals that were subject to x-ray analysis. APCI MS (m/z APCI MS (m/z): Calcd. 21 C12H17N2O3 (M+1) 236.1; Found 236.1.

[4] = Hydrolysis of Mannich bases; assay type: physicochemical
Method: We observed that indole-derived Mannich bases 30, 32 and 34, unlike the other Mannich bases herein described, were quite stable toward hydrolysis. For example, only 30% of Mannich base 34 was hydrolyzed after 80 h in D2O.

[5] = observed by Sloan et al.; could not be isolated as a stable molecule; cited from earlier work

O=c1[nH]c(=O)n(C[N+]2([O-])CCOCC2)cc1F [Mannich base N-oxide 4, 5-fluoro-1-(4-oxido-morpholin-4-yl-methyl)-1H-pyrimidine-2,4-dione]
stability in D2O [1]: stable | extent of reduction and spontaneous hydrolysis to 5-fluorouracil [2]: about 90%

N-(Dimethyl-N′-oxido-aminomethyl)-benzamide [Mannich base N-oxide 13]
conversion to the rearranged product ([3]; CDCl3 at RT, over several hours, 1H NMR): Essentially complete conversion

O=C(NC[N+]1([O-])CCOCC1)c1ccccc1 [Mannich base N-oxide 19, N-(Morpholin-4-oxido-4-ylmethyl)-benzamide]
conversion to rearranged product 20 [3]: clean conversion

O=C(NC[N+]1([O-])CCCCC1)c1ccccc1 [Mannich base N-oxide 16, N-(Piperidin-1-oxido-1-yl-methyl)-benzamide]
rearranged product 17 in 1H NMR spectrum ([3]; D2O): 10-20% | onset of rearrangement of 16 to 17 ([3]; after adding CDCl3): starts immediately

O=c1c(F)cn(CN2CCOCC2)c(=O)n1CN1CCOCC1 [Mannich base 2, 5-Fluoro-1,3-bis-morpholin-4-ylmethyl-1H-pyrimidine-2,4-dione]
stability toward hydrolysis [4]: extreme sensitivity

O=c1c(F)cn(C[N+]2([O-])CCOCC2)c(=O)n1C[N+]1([O-])CCOCC1 [Mannich base N-oxide 5, 5-fluoro-1,3-bis-(4-oxido-morpholin-4-yl-methyl)-1H-pyrimidine-2,4-dione]
stability in D2O [1]: stable

Cl.O=C(NC[N+]1([O-])CCOCC1)c1ccccc1 [N-oxide HCl salt 21, N-(Morpholin-4-oxido-4-ylmethyl)-benzamide Hydrochloride]
stability in CDCl3 solution ([3]; CDCl3 solution, several days): stable | conversion to rearranged product 20 [3]: no rearranged product 20 was formed

CN(C)Cn1cc(F)c(=O)n(CN(C)C)c1=O [Mannich base 6, 1,3-Bis-dimethylaminomethyl-5-fluoro-1H-pyrimidine-2,4-dione]
sensitivity toward hydrolysis [5]: very sensitive

O=c1[nH]cc(F)c(=O)n1C[N+]1([O-])CCOCC1 [Mannich base N-oxide 3, 5-Fluoro-3-(4-oxido-morpholin-4-yl-methyl)-1H-pyrimidine-2,4-dione]
stability in D2O [1]: stable | extent of reduction and spontaneous hydrolysis to 5-fluorouracil [2]: about 90%

CN(C)Cn1ccc2ccccc21 [Mannich base 32, N-(Dimethylaminomethyl)-indole]
stability toward hydrolysis [4]: quite stable
